Source: patent publication US7341752B2, “Antibacterial treatment and composition” (Academia Sinica, priority 2005, dated 2008)

Tested on: pathogenic Listeria bacteria
Test: Prevention of Listeria infection in mice (centaurein given before infection), cumulative survival
Assay type: in vivo, C57BL/6J mice
Conditions: 20 μg per capita intraperitoneally 24 h before 1-2×10^6 Listeria i.p.; ten days after Listeria injection
Experimental: Six-to-eight week-old C57BL/6J mice were injected intraperitoneally with centaurein at a dose ranging from 0-20 μg per capita. After twenty four hours, the same mice were injected with pathogenic Listeria bacteria. A dose of 1-2×10^6 bacteria were introduced intraperitoneally (in a total volume of 0.2 ml) into each mouse. The cumulative survival rates of the mice were then determined. […] In contrast, only 10% of the mice that were injected with Listeria and not treated with centaurein survived. Thus, centaurein protected the mice from a Listerial infection.

COc1ccc(-c2oc3cc(O[C@@H]4O[C@H](CO)[C@@H](O)[C@H](O)[C@H]4O)c(OC)c(O)c3c(=O)c2OC)cc1O [centaurein]
cumulative survival of mice: all of the mice
